Drawing on ChEMBL document CHEMBL1629496, “Four diphenylpropanes and a cycloheptadibenzofuran from Bussea sakalava from the Madagascar dry forest” (J Nat Prod, 2010), this text covers IC50 for five molecules.

In this assay the test system is A2780. Kind of assay: Antiproliferative activity against drug-sensitive human A2780 cells. Format: functional, cell-based.
As usually defined, the IC50 is the concentration needed to halve the response being measured. Turning to `COc1ccc(CCCc2cc(O)c(OC)c(O)c2)c(O)c1O` [BUSSEALIN A], the IC50 turned out to be 36 µM.
The figure for `COc1cc(OC)c(CCCc2ccc(OC)c(O)c2O)cc1O` [BUSSEALIN B] is 24 µM; for `COc1ccc(CCCc2ccc(OC)c(O)c2O)cc1O` [BUSSEALIN C] it is 36 µM; for `COc1cc(OC)c(OC)cc1CCCc1ccc(OC)c(O)c1O` [BUSSEALIN D] it is 40 µM.
The figure for `COc1c(O)c2c3c(oc4c(OC)c(O)cc(c43)CCC2)c1OC` [BUSSEALIN E] is 45 µM.
